Our source for the TGI and GI50 values is PubChem BioAssay (NCI).

The structures appear in SMILES notation.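 A five-concentration, 48-hour dose response in 96-well plates underlies each endpoint, interpolated linearly between surrounding concentrations. GI50 is the concentration that inhibits growth by half. Definition used: TGI = concentration required for complete inhibition of growth.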

Assay in all cases: NCI-60 cell line screen, 48 h
Experiment [1] concerns SK-MEL-2 melanoma.
Experiment [2] has as its system OVCAR-3 ovarian.
Experiment [3] has as its system KM12 colon.
Experiment [4] deals with DU-145 prostate.
The test system of experiment [5] is LOX IMVI melanoma.
For experiment [6], the system named is K-562 leukemia.
In experiment [7] the test system is OVCAR-4 ovarian.
Experiment [8] concerns A549 NSCLC.
The subject of experiment [9] is SNB-75 CNS.
Experiment [10] relates to NCI-H522 lung.

As to `O=C(c1ccco1)N(C(=O)N1CCCCC1)c1ccccc1`, the TGI in experiment [1], in [2], in [3], in experiment [4], in experiment [5] and in experiment [6] was more than 100 µM in each case.

Turning to `CCCCCCCC(=O)OCC(COC(=O)C(C)(C)C)OC(=O)Cc1ccccc1` (centres undefined), the TGI in experiment [2], in [7], in experiment [5], in experiment [6] and in experiment [8] was more than 100 µM each time.

On to `COCOc1ccc(C(=O)Oc2cccc3c2OC(C)(C)O3)c(OCOC)c1`, for which the TGI in [9] was more than 100 µM; in experiment [2], more than 100 µM; in [3] it was 91.1 µM; in experiment [4], more than 100 µM; in experiment [5], more than 100 µM; in experiment [6] it was more than 100 µM.

Take `Cc1nnc2n(c1=O)CCCN2C`: the TGI in [9], in [1], in experiment [2], in [3], in [4] and in experiment [7] was more than 100 µM throughout. In addition, the TGI in experiment [5], in experiment [6] and in experiment [8] was more than 100 µM each time.

For the compound `S=C(Cc1ccc2c(c1)Sc1ccccc1O2)N1CCOCC1`, the TGI in [9] is 60.6 µM; in experiment [1], more than 100 µM; in [2] it was more than 100 µM; in experiment [3], more than 100 µM; in [4], more than 100 µM; in experiment [7], more than 100 µM. Moreover, the TGI in [5], in experiment [6] and in experiment [8] was more than 100 µM throughout.

`CC1=NN(C(=O)Cc2ccccc2)C(=O)/C1=C\c1ccc(O)cc1`: the TGI in experiment [1], in experiment [2], in [3], in experiment [7], in experiment [5] and in [10] was more than 100 µM throughout. In addition, the TGI in experiment [6] and in experiment [8] was more than 100 µM throughout.

For `COC(=O)/C=C(\C)CC/C=C(\C)CCC1OC1(C)C` (centres undefined), the TGI in [9] worked out at 38.8 µM; in experiment [1], 21.2 µM; in experiment [2], 21.8 µM; in experiment [3], 20.8 µM; in experiment [7] it was 22.2 µM; in [5], 11 µM. In addition, the TGI in experiment [6] stood at 22 µM; in experiment [8], 24.1 µM.

For the compound `CCOC(=O)C1C(c2ccc(Cl)cc2Cl)NC(c2ccc(C)cc2)C(C(=O)OC)S1(=O)=O` (centres undefined), the TGI in experiment [9], in experiment [1], in [2], in experiment [3], in experiment [7] and in [5] was more than 100 µM in each case. For the same compound, the TGI in experiment [10], in [6] and in [8] was more than 100 µM throughout.

With `Cn1nc(-c2ccc(S(=O)(=O)/N=C(\NN)Nc3ccc(Cl)cc3)s2)cc1C(F)(F)F`, the TGI turned out to be 29.9 µM in [9]; 34.1 µM in experiment [1]; 36.4 µM in [2]; 31.5 µM in [3]; 30.8 µM in experiment [4]; 29.9 µM in experiment [7]. In addition, the TGI was 34.2 µM in experiment [5], 35.4 µM in experiment [6] and 29.3 µM in [8].

Regarding `O=C(/C=C/c1ccc(O)c(O)c1)OCCc1ccc2ccccc2c1`, the TGI in experiment [9] amounted to 8.22 µM; in [1], 4.35 µM; in [2] it was 12.4 µM; in experiment [3], 12.9 µM; in [4] it was 24.3 µM; in [5], 20.8 µM. Also, the results for the TGI in experiment [10] and in experiment [8] were 8.35 µM and 24.9 µM, respectively.

On to `Cc1c(N2CCOCC2)nc2ccc(Cl)cc2c1-c1ccccc1`, for which the TGI in [9], in experiment [1], in experiment [2], in [3], in [7] and in experiment [5] was more than 100 µM each time. For the same compound, the TGI in experiment [10], in experiment [6] and in experiment [8] was more than 100 µM throughout.

Regarding `COc1cc2ccc3c4cc(OC)c(OC)cc4c[n+](C)c3c2cc1O`, the TGI in [9], in experiment [1], in experiment [2], in experiment [3], in experiment [7] and in experiment [5] was more than 100 µM in each case. For the same compound, the results for the TGI in [10], in experiment [6] and in experiment [8] were 78.7 µM, more than 100 µM and more than 100 µM, respectively.

With `Cc1cc([N+](=O)[O-])c(C)c2c1[nH]c1ccc(Cl)cc12`, the TGI in [9], in experiment [1], in experiment [2], in experiment [3], in experiment [7] and in experiment [5] was more than 100 µM each time. Further, the values for the TGI in [10], in experiment [6] and in [8] were 46 µM, more than 100 µM and more than 100 µM, respectively.

In the case of `COc1cccc(C2c3cc4c(cc3OC(O)C2C)OCO4)c1OC` (centres undefined), the TGI was 32.4 µM in experiment [9]; 25.6 µM in experiment [1]; 17.9 µM in experiment [2]; 33.9 µM in experiment [3]; 26.2 µM in experiment [4]; 23.5 µM in experiment [5]. Also, the results for the TGI in [6] and in experiment [8] were 15.5 µM and 26 µM, respectively.

Take `COc1cc2nc(-c3ccc(Cl)cc3)cc(OCCCN3CCOCC3)c2cc1OC`: the GI50 is 3.87 µM in experiment [3], 0.217 µM in experiment [5], 2.71 µM in [6] and 2.02 µM in [8]. In addition, the TGI in [3] is more than 100 µM; in experiment [5], 0.593 µM; in [6] it was more than 100 µM; in [8] it was more than 100 µM.

In the case of `O=c1ccc2ccc(S)cc2o1`, the TGI in [9], in experiment [1], in experiment [2], in [3], in [4] and in experiment [7] was more than 100 µM in each case. Further, the TGI in [5], in [10] and in [8] was more than 100 µM throughout.
